From US20210347724A1, “METHOXYCHALCONE DERIVATIVES AND USES THEREOF” (The Board of Trustees of the Leland Stanford Junior …, priority 2020, published 2021) come the findings set out here.

A short description of this data set: Pharmacokinetics study. To be noted: male, Balb/c, mouse, ip; 50 mg/kg i.p., plasma. The class given is in vivo, Balb/c male mice. The protocol:
Pharmacokinetics study. Mass quantification analysis was carried out using an Agilent 6490 iFunnel triple quadrupole (QQQ) mass spectrometer equipped with an Agilent 1290 infinity II UHPLC. ZORBAX C18 (Eclipse Plus, 2.1×50 mm, 1.8 μm particle size) was used as analytical UHPLC column. The mobile phase was composed of 50% mixture of water (with 0.1% formic acid and 4 mM ammonium formate) and acetonitrile (0.1% formic acid). The flow rate of mobile phase was set at 0.5 mL/min and column temperature was adjusted at 30° C. The electrospray ionization source was operated in positive ion mode. […] For SU086-CD3 the [M+H]^+ ions were monitored at m/z 347.1 as the precursor ion and a fragment at m/z 198.1 as the product ion. […] Blood was collected retro-orbitally at 5, 15, 30, 60, 120, 360 and 720 minutes after injection in three mice per time point. Blood plasma was separated via centrifugation at 7,000 RPM for 10 minutes. Each plasma sample was mixed with SU086-CD3 internal standard. 10 μL of plasma was mixed with 190 μL MS-grade acetonitrile and vortexed 30 seconds followed by 5 minutes incubation at RT. Mixture was centrifuged at 11,000 RPM for 15 min at 4° C. and supernatant was collected and further cleaned by re-centrifugation. Each protein-free plasma fraction (n=3, from three independent mouse) was resolved using the HPLC/MS MRM method as described above.

By half-life is commonly meant how long it takes for the measured level to halve. Read a low half-life as fast loss. Turning to `COc1cc(OC)c(C(=O)/C=C/c2cccc([N+](=O)[O-])c2)c(OC)c1` [SU086], the half-life is 1 h.
